US20110165119A1, “TELAPREVIR DOSING REGIMEN” (priority 2008, published 2011)

Legend:
[1] = in vivo; cited from earlier work
[2] = biological target: T1, HCV NS3-4A protease (Hepatitis C virus genotype 1a, UniProt P27958); experiment: in vitro potency against HCV NS3-4A protease; assay type: biochemical; settings: relative to telaprevir
T1 construct: against the HCV NS3-4A protease
T1 sequence (P27958 1027-1657): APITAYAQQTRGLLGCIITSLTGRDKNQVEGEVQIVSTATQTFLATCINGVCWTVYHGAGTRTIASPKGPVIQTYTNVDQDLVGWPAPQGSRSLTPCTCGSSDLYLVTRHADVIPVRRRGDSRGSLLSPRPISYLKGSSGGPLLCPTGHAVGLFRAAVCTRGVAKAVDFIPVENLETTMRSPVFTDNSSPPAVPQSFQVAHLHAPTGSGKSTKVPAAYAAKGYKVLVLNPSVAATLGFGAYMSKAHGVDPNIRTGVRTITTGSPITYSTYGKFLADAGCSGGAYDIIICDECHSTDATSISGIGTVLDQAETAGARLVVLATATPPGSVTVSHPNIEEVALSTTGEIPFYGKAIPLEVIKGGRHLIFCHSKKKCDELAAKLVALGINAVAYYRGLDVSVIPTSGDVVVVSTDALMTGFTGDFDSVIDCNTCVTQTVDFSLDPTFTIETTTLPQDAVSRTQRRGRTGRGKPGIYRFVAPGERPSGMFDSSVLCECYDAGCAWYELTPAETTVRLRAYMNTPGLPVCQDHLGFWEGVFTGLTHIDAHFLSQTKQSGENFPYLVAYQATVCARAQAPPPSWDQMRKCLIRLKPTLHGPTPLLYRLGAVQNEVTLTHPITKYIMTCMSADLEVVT
T1 sequence (P27958 1658-1711): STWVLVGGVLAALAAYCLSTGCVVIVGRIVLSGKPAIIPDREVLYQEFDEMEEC

| times less potent than telaprevir against the HCV NS3-4A protease [2] | Structure (SMILES) | oral bioavailability [1] |
| --- | --- | --- |
| – | CCC[C@H](NC(=O)[C@@H]1[C@H]2CCC[C@H]2CN1C(=O)[C@@H](NC(=O)[C@@H](NC(=O)c1cnccn1)C1CCCCC1)C(C)(C)C)C(=O)C(=O)NC1CC1 (single isomer, unassigned) [Telaprevir] | orally bioavailable |
| about 30 times | CCCC(NC(=O)C1C2CCCC2CN1C(=O)C(NC(=O)C(NC(=O)c1cnccn1)C1CCCCC1)C(C)(C)C)C(=O)C(=O)NC1CC1 (single isomer, unassigned) [R-diastereisomer] | – |
